Experimental findings from US11795171B2, “Pyrrolotriazinones and imidazotriazinones as ubiquitin-specific protease 7 inhibitors” (Valo Health, Inc., priority 2014, dated 2023) are described below.

Molecules are shown by their SMILES.

This assay deals with USP7 (Homo sapiens (Human), UniProt Q93009). Description: USP7 Assay B (Ubitquin-Rhodamine110 Assay). The assay is classed as biochemical. To be noted: Ub-Rh110 substrate 25 nM. The protocol: Stock compound solutions were stored at −20° C. as 10 mM in DMSO. […] Prestamped assay plates were allowed to come to room temperature on the day of the assay. For the screen, 100 nL of 2 mM was pre-dispensed for a final screening concentration of 10 μM (DMSO(fc)=0.5%). […] Unless otherwise indicated, all follow-up assays were run on triplecate plates. […] Pre-stamped with compounds were either not preincubated or preincubated with USP7 between 30 to 120 minutes prior to the addition of 10 μL of 2×Ub-Rh110 to compound plates. Plates were incubated stacked for either 23 or 45 minutes at room temperature before fluorescence was read on the Envision (Excitation at 485 nm and Emission at 535 nm; Perkin Elmer) or on the PheraSTAR (Excitation at 485 nm and Emission at 535 nm; BMG Labtech).
Sequence of USP7 (Q93009 208-1102): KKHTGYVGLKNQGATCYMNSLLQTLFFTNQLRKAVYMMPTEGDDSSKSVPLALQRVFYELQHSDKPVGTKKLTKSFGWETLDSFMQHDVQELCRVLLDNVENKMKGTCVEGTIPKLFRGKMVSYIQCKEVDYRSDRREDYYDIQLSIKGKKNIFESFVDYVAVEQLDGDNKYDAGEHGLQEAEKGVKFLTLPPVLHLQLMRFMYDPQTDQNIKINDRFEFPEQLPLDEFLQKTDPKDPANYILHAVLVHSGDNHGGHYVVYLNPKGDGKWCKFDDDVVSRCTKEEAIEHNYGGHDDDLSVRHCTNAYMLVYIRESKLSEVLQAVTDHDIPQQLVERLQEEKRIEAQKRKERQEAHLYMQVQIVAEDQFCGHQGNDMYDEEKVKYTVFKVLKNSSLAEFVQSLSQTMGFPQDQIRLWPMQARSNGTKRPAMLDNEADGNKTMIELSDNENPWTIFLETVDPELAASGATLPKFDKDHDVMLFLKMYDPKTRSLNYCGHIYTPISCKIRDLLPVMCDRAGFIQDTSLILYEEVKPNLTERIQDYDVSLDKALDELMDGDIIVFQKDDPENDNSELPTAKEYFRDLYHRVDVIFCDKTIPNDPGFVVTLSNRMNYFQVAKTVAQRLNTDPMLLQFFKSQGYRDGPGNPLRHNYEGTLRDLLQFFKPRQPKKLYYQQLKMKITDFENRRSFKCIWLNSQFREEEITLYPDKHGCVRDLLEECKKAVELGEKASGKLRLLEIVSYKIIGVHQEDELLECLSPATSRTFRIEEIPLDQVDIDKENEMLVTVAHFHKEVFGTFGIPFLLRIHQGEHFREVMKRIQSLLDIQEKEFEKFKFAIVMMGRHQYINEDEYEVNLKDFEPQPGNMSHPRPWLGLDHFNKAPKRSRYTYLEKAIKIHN
Data from USP7 Assays A and B were reported as percent inhibition (inh) compared with control wells based on the following equation: % inh=1−((FLU−AveLow)/(AveHigh−AveLow)) where FLU=measured Fluorescence (See Tables 2 and 3). AveLow=average Fluorescence of no enzyme control (n=16). AveHigh=average Fluorescence of DMSO control (n=16). IC50 values were determined by curve fitting of the standard 4 parameter logistic fitting algorithm included in the Activity Base software package: IDBS XE Designer Model205. Data is fitted using the Levenburg Marquardt algorithm.

`O=C(c1cccc(-c2ccc3nccn3c2)c1)N1CCC(O)(Cn2cnn3cccc3c2=O)CC1` [Compound I-22, 3-((4-hydroxy-1-(3-(imidazo[1,2-a]pyridin-6-yl)benzoyl)piperidin-4-yl)methyl)pyrrolo[2,1-f][1,2,4]triazin-4(3H)-one] displayed an IC50 greater than 10 µM.

In turn, `O=C(c1cccc(-c2ccc3scnc3c2)c1)N1CCC(O)(Cn2cnn3cccc3c2=O)CC1` [Compound I-23, 3-((1-(3-(benzo[d]thiazol-5-yl)benzoyl)-4-hydroxypiperidin-4-yl)methyl)pyrrolo[2,1-f][1,2,4]triazin-4(3H)-one] gave an IC50 of 1 to 10 µM.

Consider `Cc1ccc2[nH]ncc2c1-c1cccc(C(=O)N2CCC(O)(Cn3cnn4cccc4c3=O)CC2)c1` [Compound I-24, 3-((4-hydroxy-1-(3-(5-methyl-1H-indazol-4-yl)benzoyl)piperidin-4-yl)methyl)pyrrolo[2,1-f][1,2,4]triazin-4(3H)-one], for which the IC50 is 1 to 10 µM.

`Cn1c(-c2cccc(C(=O)N3CCC(O)(Cn4cnn5cccc5c4=O)CC3)c2)cc2ccccc21` [Compound I-25, 3-((4-hydroxy-1-(3-(1-methyl-1H-indol-2-yl)benzoyl)piperidin-4-yl)methyl)pyrrolo[2,1-f][1,2,4]triazin-4(3H)-one] yielded an IC50 of 0.2 to 1 µM.

`O=C(NC1CCCC1)c1cccc(-c2cccc(C(=O)N3CCC(O)(Cn4cnn5cccc5c4=O)CC3)c2)c1` [Compound I-26, N-cyclopentyl-3′-(4-hydroxy-4-((4-oxopyrrolo[2,1-f][1,2,4]triazin-3(4H)-yl)methyl)piperidine-1-carbonyl)-[1,1′-biphenyl]-3-carboxamide] showed an IC50 greater than 10 µM.

For `O=C(c1cccc(-c2cccs2)c1)N1CCC(O)(Cn2cnn3cccc3c2=O)CC1` [Compound I-27, 3-((4-hydroxy-1-(3-(thiophen-2-yl)benzoyl)piperidin-4-yl)methyl)pyrrolo[2,1-f][1,2,4]triazin-4(3H)-one], the IC50 was greater than 10 µM.

Consider `O=C(c1cccc(-c2ccsc2)c1)N1CCC(O)(Cn2cnn3cccc3c2=O)CC1` [Compound I-28, 3-((4-hydroxy-1-(3-(thiophen-3-yl)benzoyl)piperidin-4-yl)methyl)pyrrolo[2,1-f][1,2,4]triazin-4(3H)-one], for which the IC50 was greater than 10 µM.

`O=C(c1cccc(-c2ccccc2F)c1)N1CCC(O)(Cn2cnn3cccc3c2=O)CC1` [Compound I-29, 3-((1-(2′-fluoro-[1,1′-biphenyl]-3-carbonyl)-4-hydroxypiperidin-4-yl)methyl)pyrrolo[2,1-f][1,2,4]triazin-4(3H)-one]: the half-inhibitory concentration (IC50) lay in the range of 1 to 10 µM.

With `O=C(c1cccc(-c2cccc(F)c2)c1)N1CCC(O)(Cn2cnn3cccc3c2=O)CC1` [Compound I-30, 3-((1-(3′-fluoro-[1,1′-biphenyl]-3-carbonyl)-4-hydroxypiperidin-4-yl)methyl)pyrrolo[2,1-f][1,2,4]triazin-4(3H)-one], the IC50 was in the range of 1 to 10 µM.

In turn, `CC(C)(C#N)c1ccc(C(=O)N2CCC(O)(Cn3cnn4cccc4c3=O)CC2)cc1` [Compound I-31, 2-(4-(4-hydroxy-4-((4-oxopyrrolo[2,1-f][1,2,4]triazin-3(4H)-yl)methyl)piperidine-1-carbonyl)phenyl)-2-methylpropanenitrile] registered an IC50 greater than 10 µM.

On to `O=C(c1cnc(-c2ccccc2)o1)N1CCC(O)(Cn2cnn3cccc3c2=O)CC1` [Compound I-32, 3-((4-hydroxy-1-(2-phenyloxazole-5-carbonyl)piperidin-4-yl)methyl)pyrrolo[2,1-f][1,2,4]triazin-4(3H)-one], for which the IC50 was greater than 10 µM.

In the case of `O=C(C1CCN(c2nc3ccccc3o2)CC1)N1CCC(O)(Cn2cnn3cccc3c2=O)CC1` [Compound I-33, 3-((1-(1-(benzo[d]oxazol-2-yl)piperidine-4-carbonyl)-4-hydroxypiperidin-4-yl)methyl)pyrrolo[2,1-f][1,2,4]triazin-4(3H)-one], the IC50 is greater than 10 µM.

`COc1cccc(-c2ccc(C(=O)N3CCC(O)(Cn4cnn5cccc5c4=O)CC3)cc2)c1` [Compound I-35, 3-((4-hydroxy-1-(3′-methoxy-[1,1′-biphenyl]-4-carbonyl)piperidin-4-yl)methyl)pyrrolo[2,1-f][1,2,4]triazin-4(3H)-one] returned an IC50 greater than 10 µM.

In the case of `O=C(c1ccc(-c2ccccc2)cc1)N1CCC(O)(Cn2cnn3cccc3c2=O)CC1` [Compound I-36, 3-((1-([1,1′-biphenyl]-4-carbonyl)-4-hydroxypiperidin-4-yl)methyl)pyrrolo[2,1-f][1,2,4]triazin-4(3H)-one], the IC50 is greater than 10 µM.

Regarding `CCOc1cccc(-c2ccc(C(=O)N3CCC(O)(Cn4cnn5cccc5c4=O)CC3)cc2)c1` [Compound I-37, 3-((1-(3′-ethoxy-[1,1′-biphenyl]-4-carbonyl)-4-hydroxypiperidin-4-yl)methyl)pyrrolo[2,1-f][1,2,4]triazin-4(3H)-one], the IC50 is greater than 10 µM.

In turn, `CN(C)C(=O)c1ccc(-c2ccc(C(=O)N3CCC(O)(Cn4cnn5cccc5c4=O)CC3)cc2)cc1` [Compound I-38, 4′-(4-hydroxy-4-((4-oxopyrrolo[2,1-f][1,2,4]triazin-3(4H)-yl)methyl)piperidine-1-carbonyl)-N,N-dimethyl-[1,1′-biphenyl]-4-carboxamide] returned an IC50 of 1 to 10 µM.

On to `O=C(c1ccc(-c2ccc(C(=O)N3CCC(O)(Cn4cnn5cccc5c4=O)CC3)cc2)cc1)N1CCCC1` [Compound I-39, 3-((4-hydroxy-1-(4′-(pyrrolidine-1-carbonyl)-[1,1′-biphenyl]-4-carbonyl)piperidin-4-yl)methyl)pyrrolo[2,1-f][1,2,4]triazin-4(3H)-one], for which the IC50 is 1 to 10 µM.

`COc1ccc(OC)c(-c2ccc(C(=O)N3CCC(O)(Cn4cnn5cccc5c4=O)CC3)cc2)c1` [Compound I-40, 3-((1-(2′,5′-dimethoxy-[1,1′-biphenyl]-4-carbonyl)-4-hydroxypiperidin-4-yl)methyl)pyrrolo[2,1-f][1,2,4]triazin-4(3H)-one]: the IC50 is greater than 10 µM.

Molecule `CCNC(=O)c1ccc(-c2ccc(C(=O)N3CCC(O)(Cn4cnn5cccc5c4=O)CC3)cc2)cc1` [Compound I-41, N-ethyl-4′-(4-hydroxy-4-((4-oxopyrrolo[2,1-f][1,2,4]triazin-3(4H)-yl)methyl)piperidine-1-carbonyl)-[1,1′-biphenyl]-4-carboxamide] yielded an IC50 greater than 10 µM.

The molecule `O=C(c1ccc(-c2cnc3ccccc3c2)cc1)N1CCC(O)(Cn2cnn3cccc3c2=O)CC1` [Compound I-42, 3-((4-hydroxy-1-(4-(quinolin-3-yl)benzoyl)piperidin-4-yl)methyl)pyrrolo[2,1-f][1,2,4]triazin-4(3H)-one] had an IC50 of 1 to 10 µM.

The molecule `O=C(c1ccc(-c2ccc3ncccc3c2)cc1)N1CCC(O)(Cn2cnn3cccc3c2=O)CC1` [Compound I-43, 3-((4-hydroxy-1-(4-(quinolin-6-yl)benzoyl)piperidin-4-yl)methyl)pyrrolo[2,1-f][1,2,4]triazin-4(3H)-one] returned an IC50 of 1 to 10 µM.

For the molecule `COc1cc(OC)cc(-c2ccc(C(=O)N3CCC(O)(Cn4cnn5cccc5c4=O)CC3)cc2)c1` [Compound I-44, 3-((1-(3′,5′-dimethoxy-[1,1′-biphenyl]-4-carbonyl)-4-hydroxypiperidin-4-yl)methyl)pyrrolo[2,1-f][1,2,4]triazin-4(3H)-one], the IC50 is greater than 10 µM.

The molecule `Cc1ccc2cc(-c3ccc(C(=O)N4CCC(O)(Cn5cnn6cccc6c5=O)CC4)cc3)ccc2n1` [Compound I-45, 3-((4-hydroxy-1-(4-(2-methylquinolin-6-yl)benzoyl)piperidin-4-yl)methyl)pyrrolo[2,1-f][1,2,4]triazin-4(3H)-one] showed an IC50 of 1 to 10 µM.

`Cn1cnc2cc(-c3ccc(C(=O)N4CCC(O)(Cn5cnn6cccc6c5=O)CC4)cc3)ccc21` [Compound I-46, 3-((4-hydroxy-1-(4-(1-methyl-1H-benzo[d]imidazol-5-yl)benzoyl)piperidin-4-yl)methyl)pyrrolo[2,1-f][1,2,4]triazin-4(3H)-one] yielded an IC50 greater than 10 µM.

Turning to `O=C(c1ccc(-c2ccc3ocnc3c2)cc1)N1CCC(O)(Cn2cnn3cccc3c2=O)CC1` [Compound I-47, 3-((1-(4-(benzo[d]oxazol-5-yl)benzoyl)-4-hydroxypiperidin-4-yl)methyl)pyrrolo[2,1-f][1,2,4]triazin-4(3H)-one], the IC50 is greater than 10 µM.

Turning to `O=C(c1ccc(-c2ccc3ncnn3c2)cc1)N1CCC(O)(Cn2cnn3cccc3c2=O)CC1` [Compound I-48, 3-((1-(4-([1,2,4]triazolo[1,5-a]pyridin-6-yl)benzoyl)-4-hydroxypiperidin-4-yl)methyl)pyrrolo[2,1-f][1,2,4]triazin-4(3H)-one], the IC50 is greater than 10 µM.

For `CC(CC(=O)N1CCC(O)(Cn2cnn3cc(Cl)cc3c2=O)CC1)c1ccccc1` (stereo not shown) [Compound I-49, 6-chloro-3-((4-hydroxy-1-(3-phenylbutanoyl)piperidin-4-yl)methyl)pyrrolo[2,1-f][1,2,4]triazin-4(3H)-one], the IC50 fell in the range of 1 to 10 µM.

Molecule `O=C(c1ccc(-c2ccccc2)cc1Cl)N1CCC(O)(Cn2cnn3cccc3c2=O)CC1` [Compound I-50, 3-((1-(3-chloro-[1,1′-biphenyl]-4-carbonyl)-4-hydroxypiperidin-4-yl)methyl)pyrrolo[2,1-f][1,2,4]triazin-4(3H)-one] showed an IC50 greater than 10 µM.

The term IC50 denotes the point on the concentration scale where inhibition reaches its midpoint. Low values mean greater potency in that assay, high ones weaker potency in that assay.
